{"source": "patent US20230182351A1", "about": "“ANTI-MICROBIAL ADDITIVE AND PROPERTIES TO FOAM TO PREVENT MOLD” (LEAR CORPORATION, priority 2021, published 2023)", "test_system": "bacterial and fungal growth", "experiment": "Antimicrobial tests summarized in Table 1 (JIS Z 2801, ASTM G-21)", "type": "cell-based", "conditions": "in polyurethane foam, amount systematically varied", "protocol": "Two polyurethane sample families were prepared. The amount of the liquid antimicrobial agent N-butyl-1,2-benzisothiazolin-3-one was systematically varied. It is pointed out that he JIS Z 2801 method test is an industry standard for testing the ability of a surface to inhibit the growth of microorganisms. ASTM G-21 is a test for fungal resistance test"}
{"smiles": "CCCCn1sc2ccccc2c1=O", "note": "[N-butyl-1,2-benzisothiazolin-3-one]", "values": [{"measurement": "inhibition of bacterial and fungal growth", "result": "significant inhibition"}]}
